# Measured values as given in paper doi:10.1101/2023.12.04.569845, “Identification of 4-(6-((2-methoxyphenyl)amino)pyrazin-2-yl)benzoic acids as CSNK2A inhibitors with antiviral activity and improved selectivity over PIM3” (bioRxiv, 2023).
# Where two headings read alike, the source gives them in different places.
# What was measured:
# Assay in all cases: biochemical
# [1] = biological target: T1, TIF1 (Homo sapiens, UniProt O15164); set-up: Thermal shift assay (SYPRO Orange DSF) of recombinant kinase domains; Tm shift
# T1 construct: gene TRIM24
# T1 sequence (O15164 1-1050): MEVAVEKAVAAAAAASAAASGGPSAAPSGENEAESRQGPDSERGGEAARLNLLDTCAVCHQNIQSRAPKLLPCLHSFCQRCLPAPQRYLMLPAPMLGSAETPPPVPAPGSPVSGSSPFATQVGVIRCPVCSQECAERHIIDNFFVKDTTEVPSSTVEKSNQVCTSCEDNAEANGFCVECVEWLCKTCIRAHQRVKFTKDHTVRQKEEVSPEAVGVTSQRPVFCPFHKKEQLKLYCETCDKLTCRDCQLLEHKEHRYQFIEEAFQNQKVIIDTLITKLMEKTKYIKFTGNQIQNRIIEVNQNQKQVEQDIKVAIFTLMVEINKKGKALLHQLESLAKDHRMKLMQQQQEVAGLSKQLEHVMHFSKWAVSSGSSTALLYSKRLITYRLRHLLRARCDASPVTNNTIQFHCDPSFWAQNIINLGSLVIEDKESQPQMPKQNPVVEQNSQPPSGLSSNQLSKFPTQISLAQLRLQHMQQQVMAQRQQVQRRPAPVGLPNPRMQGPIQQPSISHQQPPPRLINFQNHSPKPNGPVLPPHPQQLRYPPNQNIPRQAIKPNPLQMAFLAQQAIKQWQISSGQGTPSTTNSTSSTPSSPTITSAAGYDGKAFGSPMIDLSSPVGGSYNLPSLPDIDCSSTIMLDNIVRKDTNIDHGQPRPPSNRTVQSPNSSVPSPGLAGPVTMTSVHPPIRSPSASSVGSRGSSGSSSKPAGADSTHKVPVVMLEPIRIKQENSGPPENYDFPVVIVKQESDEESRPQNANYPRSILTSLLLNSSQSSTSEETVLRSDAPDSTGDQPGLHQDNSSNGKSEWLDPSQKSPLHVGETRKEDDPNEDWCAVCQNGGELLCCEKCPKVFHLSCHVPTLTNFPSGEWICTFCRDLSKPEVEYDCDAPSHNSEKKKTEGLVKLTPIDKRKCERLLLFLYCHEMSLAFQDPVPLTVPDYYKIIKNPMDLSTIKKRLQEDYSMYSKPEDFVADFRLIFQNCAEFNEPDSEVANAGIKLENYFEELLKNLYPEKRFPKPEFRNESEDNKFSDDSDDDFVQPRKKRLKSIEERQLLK
# Experimental: (§1) S23 Thermal stability kinase selectivity. The assay was performed as previously described. 9,10 Briefly, recombinant protein kinase domains at a concentration of 2 μM were mixed with 10 μM compound in a buffer containing 20 mM HEPES, pH 7.5, and 500 mM NaCl. SYPRO Orange (5000×, Invitrogen) was added as a fluorescence probe (1 µl per mL). Subsequently, temperature-dependent protein unfolding profiles were measured using the QuantStudio™ 5 realtime PCR machine (Thermo Fisher). Excitation and emission filters were set to 465 nm and 590 nm, respectively. The temperature was raised with a step rate of 3°C per minute. Data points were analysed with the internal software (Thermal Shift SoftwareTM Version 1.4, Thermo Fisher) using the Boltzmann equation to determine the inflection point of the transition curve.
# [2] = biological target: T2, ATK3 (Homo sapiens, UniProt Q9Y243); set-up: Thermal shift assay (SYPRO Orange DSF) of recombinant kinase domains; Tm shift
# T2 construct: gene AKT3; kinase domain
# T2 sequence (Q9Y243 whole entry, the tested form may be a part): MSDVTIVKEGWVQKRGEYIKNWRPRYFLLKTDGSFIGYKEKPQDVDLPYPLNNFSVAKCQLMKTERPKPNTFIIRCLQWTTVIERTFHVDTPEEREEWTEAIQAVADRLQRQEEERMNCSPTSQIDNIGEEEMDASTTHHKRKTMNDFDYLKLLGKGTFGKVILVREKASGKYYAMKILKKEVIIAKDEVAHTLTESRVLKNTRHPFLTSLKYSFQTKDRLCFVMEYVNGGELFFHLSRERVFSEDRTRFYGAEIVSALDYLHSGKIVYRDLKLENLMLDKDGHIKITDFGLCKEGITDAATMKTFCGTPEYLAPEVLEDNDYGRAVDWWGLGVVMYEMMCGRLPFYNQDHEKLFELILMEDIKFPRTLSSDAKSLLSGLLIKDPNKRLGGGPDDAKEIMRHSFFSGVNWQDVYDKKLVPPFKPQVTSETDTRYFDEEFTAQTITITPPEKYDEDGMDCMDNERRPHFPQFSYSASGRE
# Experimental: as §1
# [3] = biological target: BRD4 (Homo sapiens, UniProt O60885); set-up: Thermal shift (DSF, SYPRO Orange) Tm shift of recombinant kinase domains at 10 uM compound
# [4] = biological target: T3, NEK1 (Homo sapiens, UniProt Q96PY6); set-up: Thermal shift (DSF, SYPRO Orange) Tm shift of recombinant kinase domains at 10 uM compound
# T3 sequence (Q96PY6 1-1258): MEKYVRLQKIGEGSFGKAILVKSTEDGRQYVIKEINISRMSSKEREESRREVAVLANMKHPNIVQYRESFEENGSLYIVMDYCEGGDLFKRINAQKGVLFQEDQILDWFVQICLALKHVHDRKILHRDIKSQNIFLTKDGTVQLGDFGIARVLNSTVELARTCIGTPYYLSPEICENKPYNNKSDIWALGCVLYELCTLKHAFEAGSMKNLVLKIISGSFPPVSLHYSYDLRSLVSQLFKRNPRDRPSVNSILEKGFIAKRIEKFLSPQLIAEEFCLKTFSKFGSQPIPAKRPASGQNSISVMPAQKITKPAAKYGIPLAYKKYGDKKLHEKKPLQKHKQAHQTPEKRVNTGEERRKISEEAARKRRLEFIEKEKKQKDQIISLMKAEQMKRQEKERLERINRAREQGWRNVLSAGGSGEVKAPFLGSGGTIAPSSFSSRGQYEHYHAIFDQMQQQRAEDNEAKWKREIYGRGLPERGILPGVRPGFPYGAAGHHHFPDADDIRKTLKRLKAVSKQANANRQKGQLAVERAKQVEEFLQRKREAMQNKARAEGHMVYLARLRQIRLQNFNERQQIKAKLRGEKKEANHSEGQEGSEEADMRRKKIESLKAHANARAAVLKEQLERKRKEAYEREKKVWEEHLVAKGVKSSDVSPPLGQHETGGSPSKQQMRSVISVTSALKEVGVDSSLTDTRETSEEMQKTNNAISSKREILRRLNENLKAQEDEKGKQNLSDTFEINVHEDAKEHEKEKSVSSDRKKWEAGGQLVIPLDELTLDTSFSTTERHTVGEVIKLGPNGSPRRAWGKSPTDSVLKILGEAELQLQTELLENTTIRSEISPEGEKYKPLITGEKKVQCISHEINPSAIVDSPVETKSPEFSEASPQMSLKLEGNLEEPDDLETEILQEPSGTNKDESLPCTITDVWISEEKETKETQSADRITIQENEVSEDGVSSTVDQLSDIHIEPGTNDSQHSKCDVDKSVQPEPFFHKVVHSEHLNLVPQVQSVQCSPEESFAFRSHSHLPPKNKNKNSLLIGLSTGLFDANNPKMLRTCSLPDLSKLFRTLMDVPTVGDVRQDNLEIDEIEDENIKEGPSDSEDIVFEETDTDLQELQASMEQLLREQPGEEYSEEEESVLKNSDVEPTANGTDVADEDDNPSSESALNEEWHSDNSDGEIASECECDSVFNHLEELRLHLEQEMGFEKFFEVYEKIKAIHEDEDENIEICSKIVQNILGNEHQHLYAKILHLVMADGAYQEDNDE
# [5] = biological target: AURKB (Homo sapiens, UniProt Q96GD4); set-up: Thermal shift (DSF, SYPRO Orange) Tm shift of recombinant kinase domains at 10 uM compound
# AURKB, sequence (Q96GD4 whole entry, the tested form may be a part): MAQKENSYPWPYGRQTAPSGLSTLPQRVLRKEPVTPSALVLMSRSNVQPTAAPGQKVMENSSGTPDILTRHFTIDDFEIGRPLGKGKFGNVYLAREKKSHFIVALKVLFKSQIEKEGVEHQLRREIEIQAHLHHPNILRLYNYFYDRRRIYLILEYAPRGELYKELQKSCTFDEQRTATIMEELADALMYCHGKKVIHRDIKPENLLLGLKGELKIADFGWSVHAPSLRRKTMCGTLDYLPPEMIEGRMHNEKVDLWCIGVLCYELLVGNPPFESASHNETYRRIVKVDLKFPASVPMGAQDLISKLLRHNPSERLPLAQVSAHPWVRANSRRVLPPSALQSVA
structure (smiles),measurement,setting,value
CC(C)Oc1ccc2ccn(-c3cncc(-c4ccc(C(=O)O)cc4)n3)c2c1 [6c],ΔTm at 10 µM,[1]; read-out: 6c,-2 °C
same,ΔTm at 10 µM,[2]; read-out: 6c,-1 °C
same,ΔTm at 10 µM,[3]; read-out: 6c,2 °C
same,ΔTm at 10 µM,[4]; read-out: 6c,0 °C
same,ΔTm at 10 µM,[5]; read-out: 6c,4 °C
COc1ccc(OC(C)C)cc1Nc1cncc(-c2ccc(C(=O)O)cc2)n1 [7c],ΔTm at 10 µM,[1]; read-out: 7c,-1 °C
same,ΔTm at 10 µM,[2]; read-out: 7c,-1 °C
same,ΔTm at 10 µM,[3]; read-out: 7c,1 °C
same,ΔTm at 10 µM,[4]; read-out: 7c,0 °C
same,ΔTm at 10 µM,[5]; read-out: 7c,2 °C
"CC(C)Nc1ccc2cnn(-c3cncc(-c4ccc(C(=O)O)cc4)n3)c2c1 [compound 2, 2]",ΔTm at 10 µM,[1]; read-out: 2,0 °C
same,ΔTm at 10 µM,[2]; read-out: 2,1 °C
same,ΔTm at 10 µM,[3]; read-out: 2,2 °C
same,ΔTm at 10 µM,[4]; read-out: 2,1 °C
same,ΔTm at 10 µM,[5]; read-out: 2,4 °C
